# Measured values reported in patent US11766425B2, “Antibiotic combination therapies” (BIOVERSYS AG, priority 2019, dated 2023).
# Where two headings read alike, the source gives them in different places. Bridge positions count the residues as written; N and C are the ends. Square brackets hold non-standard residues; d marks the D form. Peptide text beside a SMILES is read from it. Dab = NCC[C@H](N)C(=O)O
# Legend:
# Assay type in all cases: cell-based, Acinetobacter baumannii
# [1] = system: panel of MDR clinical isolates of A. baumannii
# Experimental: (§1) Checkerboards were performed according to the CLSI parameters used for microbroth dilution MIC5. CA-MHB, iron-depleted CA-MHB (ID-CA-MHB) or RPMI supplemented with 10% FCS medium were used as specified and ID-CA-MHB was prepared according to CLSI guidelines. […] FICI is calculated as follows: […]
# A. baumannii IHMA690517 = assay: broth microdilution checkerboard MIC/synergy; conditions: strain IHMA690517; for MICs alone: antibiotic alone
# Experimental: as §1
# A. baumannii 401255-18 = assay: broth microdilution checkerboard MIC/synergy; conditions: strain 401255-18; for MICs alone: antibiotic alone
# Experimental: as §1
# A. baumannii IHMA867231 = assay: broth microdilution checkerboard MIC/synergy; conditions: strain IHMA867231; for MICs alone: antibiotic alone
# Experimental: as §1
# A. baumannii 402608-17 = assay: broth microdilution checkerboard MIC/synergy; conditions: strain 402608-17; for MICs alone: antibiotic alone
# Experimental: as §1
# A. baumannii HUMC1 = assay: broth microdilution checkerboard MIC/synergy; conditions: strain HUMC1; for MICs alone: antibiotic alone
# Experimental: as §1
# A. baumannii IHMA919656 = assay: broth microdilution checkerboard MIC/synergy; conditions: strain IHMA919656; for MICs alone: antibiotic alone
# Experimental: as §1
# A. baumannii UNT239-1 = assay: broth microdilution checkerboard MIC/synergy; conditions: strain UNT239-1; for MICs alone: antibiotic alone
# Experimental: as §1
# A. baumannii UNT091-1 = assay: broth microdilution checkerboard MIC/synergy; conditions: strain UNT091-1; for MICs alone: antibiotic alone
# Experimental: as §1
# A. baumannii UNT087-1 = assay: broth microdilution checkerboard MIC/synergy; conditions: strain UNT087-1; for MICs alone: antibiotic alone
# Experimental: as §1
# A. baumannii 402292-17 = assay: broth microdilution checkerboard MIC/synergy; conditions: strain 402292-17; for MICs alone: antibiotic alone
# Experimental: as §1
# A. baumannii ACC00535 = assay: broth microdilution checkerboard MIC/synergy; conditions: strain ACC00535; rifabutin/SPR741 in combination
# Experimental: as §1
# A. baumannii IHMA863866 = assay: broth microdilution checkerboard MIC/synergy; conditions: strain IHMA863866; for MICs alone: antibiotic alone
# Experimental: as §1
# A. baumannii 401046-18 = assay: broth microdilution checkerboard MIC/synergy; conditions: strain 401046-18; for MICs alone: antibiotic alone
# Experimental: as §1
# A. baumannii UNT191-1 = assay: broth microdilution checkerboard MIC/synergy; conditions: strain UNT191-1; for MICs alone: antibiotic alone
# Experimental: as §1
# A. baumannii IHMA1013816 = assay: broth microdilution checkerboard MIC/synergy; conditions: strain IHMA1013816; for MICs alone: antibiotic alone
# Experimental: as §1
# A. baumannii UNT238-1 = assay: broth microdilution checkerboard MIC/synergy; conditions: strain UNT238-1; for MICs alone: antibiotic alone
# Experimental: as §1
# [2] = system: A. baumannii LAC-4 strain; assay: broth microdilution checkerboard MIC/synergy; conditions: for MICs alone: antibiotic alone
# Experimental: as §1
# The checkerboards were performed in CA-MHB or ID-CA-MHB for cefiderocol.
# [3] = rifabutin/SPR741 in combination
# [4] = rifabutin/colistin checkerboard, CA-MHB
# [5] = rifampicin/colistin checkerboard
# [6] = rifabutin/colistin in combination, CA-MHB
# [7] = rifampicin/colistin in combination
# [8] = second antibiotic in combination with rifabutin, LAC-4, CA-MHB
molecule,measurement,setting,value
CC(=O)N[C@H](C(=O)N[C@H](CO)C(=O)N[C@H]1CCNC(=O)[C@H]([C@@H](C)O)NC(=O)[C@H](CCN)NC(=O)[C@H](CCN)NC(=O)[C@H](CC(C)C)NC(=O)[C@@H](Cc2ccccc2)NC(=O)[C@H](CCN)NC1=O)[C@@H](C)O [SPR741] (Ac-T[dS][Dab][Dab][dF]L[Dab][Dab]T; lactam 3-C),"SPR741 concentration required to achieve synergy with rifabutin, relative to colistin",[1]; higher than the one of colistin,at least 8 fold
same,strains on which synergy was observed,[1]; rifabutin with SPR741,88%
same,MICs combi / in combination,A. baumannii IHMA690517; [3],16 mg/L
same,MICs combi / in combination,A. baumannii 401255-18; [3],4 mg/L
same,MICs combi / in combination,A. baumannii IHMA867231; [3],32 mg/L
same,MICs combi / in combination,A. baumannii 402608-17; [3],16 mg/L
same,MICs combi / in combination,A. baumannii HUMC1; [3],4 mg/L
same,MICs combi / in combination,A. baumannii IHMA919656; [3],8 mg/L
same,MICs combi / in combination,A. baumannii UNT239-1; [3],4 mg/L
same,MICs combi / in combination,A. baumannii UNT091-1; [3],2 mg/L
same,MICs combi / in combination,A. baumannii UNT087-1; [3],8 mg/L
same,MICs combi / in combination,A. baumannii 402292-17; [3],32 mg/L
same,MICs combi / in combination,A. baumannii ACC00535,4 mg/L
same,MICs combi / in combination,A. baumannii IHMA863866; [3],16 mg/L
same,MICs combi / in combination,A. baumannii 401046-18; [3],8 mg/L
same,MICs combi / in combination,A. baumannii UNT191-1; [3],4 mg/L
same,MICs combi / in combination,A. baumannii IHMA1013816; [3],16 mg/L
same,MICs combi / in combination,A. baumannii UNT238-1; [3],4 mg/L
same,MICs combi / in combination,"[2]; strain LAC-4, rifabutin/SPR741 in combination",4 mg/L
colistin,reduction of colistin MICs,"[1]; in combination with rifabutin, colistin resistant strains, CA-MHB",at least 16 fold
same,strains on which synergy was observed,"[1]; rifabutin with colistin, CA-MHB, 16 MDR isolates",100%
same,MICs alone,A. baumannii IHMA690517; [4],16 mg/L
same,MICs alone,A. baumannii IHMA690517; [5],16 mg/L
same,MICs combi,A. baumannii IHMA690517; [6],0.5 mg/L
same,MICs combi,A. baumannii IHMA690517; [7],<0.5 mg/L
same,MICs alone,A. baumannii 401255-18; [4],0.25 mg/L
same,MICs alone,A. baumannii 401255-18; [5],0.25 mg/L
same,MICs combi,A. baumannii 401255-18; [6],0.06 mg/L
same,MICs combi,A. baumannii 401255-18; [7],0.06 mg/L
same,MICs alone,A. baumannii IHMA867231; [4],32 mg/L
same,MICs alone,A. baumannii IHMA867231; [5],32 mg/L
same,MICs combi,A. baumannii IHMA867231; [6],4 mg/L
same,MICs combi,A. baumannii IHMA867231; [7],4 mg/L
same,MICs alone,A. baumannii 402608-17; [4],1 mg/L
same,MICs alone,A. baumannii 402608-17; [5],1 mg/L
same,MICs combi,A. baumannii 402608-17; [6],0.25 mg/L
same,MICs combi,A. baumannii 402608-17; [7],0.25 mg/L
same,MICs alone,A. baumannii HUMC1; [4],0.5 mg/L
same,MICs alone,A. baumannii HUMC1; [5],0.5 mg/L
same,MICs alone,A. baumannii IHMA919656; [4],512 mg/L
same,MICs alone,A. baumannii IHMA919656; [5],512 mg/L
same,MICs combi,A. baumannii IHMA919656; [6],1 mg/L
same,MICs combi,A. baumannii IHMA919656; [7],1 mg/L
same,MICs alone,A. baumannii UNT239-1; [4],1 mg/L
same,MICs alone,A. baumannii UNT239-1; [5],1 mg/L
same,MICs combi,A. baumannii UNT239-1; [6],0.25 mg/L
same,MICs combi,A. baumannii UNT239-1; [7],0.25 mg/L
same,MICs alone,A. baumannii UNT091-1; [4],0.5 mg/L
same,MICs alone,A. baumannii UNT091-1; [5],0.5 mg/L
same,MICs alone,A. baumannii UNT087-1; [4],1 mg/L
same,MICs alone,A. baumannii UNT087-1; [5],0.5 mg/L
same,MICs combi,A. baumannii UNT087-1; [6],0.25 mg/L
same,MICs alone,A. baumannii 402292-17; [4],1 mg/L
same,MICs alone,A. baumannii 402292-17; [5],0.25 mg/L
same,MICs combi,A. baumannii 402292-17; [6],0.25 mg/L
same,MICs alone,A. baumannii IHMA863866; [4],>512 mg/L
same,MICs alone,A. baumannii IHMA863866; [5],512 mg/L
same,MICs combi,A. baumannii IHMA863866; [6],1 mg/L
same,MICs combi,A. baumannii IHMA863866; [7],0.5 mg/L
same,MICs alone,A. baumannii 401046-18; [4],0.5 mg/L
same,MICs alone,A. baumannii 401046-18; [5],0.25 mg/L
same,MICs combi,A. baumannii 401046-18; [7],0.06 mg/L
same,MICs alone,A. baumannii UNT191-1; [4],2 mg/L
same,MICs alone,A. baumannii UNT191-1; [5],1 mg/L
same,MICs combi,A. baumannii UNT191-1; [6],0.5 mg/L
same,MICs combi,A. baumannii UNT191-1; [7],0.25 mg/L
same,MICs alone,A. baumannii IHMA1013816; [4],16 mg/L
same,MICs alone,A. baumannii IHMA1013816; [5],32 mg/L
same,MICs combi,A. baumannii IHMA1013816; [6],<0.5 mg/L
same,MICs combi,A. baumannii IHMA1013816; [7],<0.5 mg/L
same,MICs alone,A. baumannii UNT238-1; [4],0.25 mg/L
same,MICs alone,A. baumannii UNT238-1; [5],0.5 mg/L
same,MICs combi,A. baumannii UNT238-1; [6],0.06 mg/L
same,FICI,[2]; [8],0.254
same,Interpretation,[2]; [8],synergy (synergy (FICI≤0.5))
same,MICs alone,"[2]; strain LAC-4, rifabutin/colistin checkerboard, CA-MHB",0.5 mg/L
same,MICs alone,"[2]; strain LAC-4, rifampicin/colistin checkerboard",0.5 mg/L
